Test results published in ChEMBL document CHEMBL1212927, “Synthesis and structure-activity relationships of novel 8a-aza-8a-homoerythromycin A ketolides” (2010).
Converted amounts (≈) assume the structure as drawn.

Experiments:
Staphylococcus aureus [1] = test: Antibacterial activity against inducible macrolide-lincosamide-streptogramin B-resistant Staphylococcus aureus B0538 by agar microdilution method; type: functional
Staphylococcus aureus [2] = test: Antibacterial activity against constitutive macrolide-lincosamide-streptogramin B-resistant Staphylococcus aureus B0330 by agar microdilution method; type: functional
Staphylococcus aureus [3] = test: Antibacterial activity against efflux-resistant Staphylococcus aureus B0331 by agar microdilution method; type: functional
Streptococcus pneumoniae [4] = test: Antibacterial activity against constitutive macrolide-lincosamide-streptogramin B-resistant Streptococcus pneumoniae B0627 by agar microdilution method; type: functional
Streptococcus pneumoniae [5] = test: Antibacterial activity against efflux-resistant Streptococcus pneumoniae B0326 by agar microdilution method; type: functional
Streptococcus pyogenes [6] = test: Antibacterial activity against inducible macrolide-lincosamide-streptogramin B-resistant Streptococcus pyogenes B0543 by agar microdilution method; type: functional
Streptococcus pyogenes [7] = test: Antibacterial activity against constitutive macrolide-lincosamide-streptogramin B-resistant Streptococcus pyogenes B0544 by agar microdilution method; type: functional
Streptococcus pyogenes [8] = test: Antibacterial activity against efflux-resistant Streptococcus pyogenes B0545 by agar microdilution method; type: functional
Moraxella catarrhalis = test: Antibacterial activity against Moraxella catarrhalis B0324 by agar microdilution method; type: functional
Haemophilus influenzae = test: Antibacterial activity against Haemophilus influenzae B0529 by agar microdilution method; type: functional
Staphylococcus aureus [9] = test: Antibacterial activity against erythromycin A-susceptible Staphylococcus aureus B0329 by agar microdilution method
Streptococcus pneumoniae [10] = test: Antibacterial activity against erythromycin-susceptible Streptococcus pneumoniae B0541 by agar microdilution method
Streptococcus pyogenes [11] = test: Antibacterial activity against erythromycin A-susceptible Streptococcus pyogenes B0542 by agar microdilution method

| Compound | MIC (Staphylococcus aureus [1]) | MIC (Staphylococcus aureus [2]) | MIC (Staphylococcus aureus [3]) | MIC (Streptococcus pneumoniae [4]) | MIC (Streptococcus pneumoniae [5]) | MIC (Streptococcus pyogenes [6]) | MIC (Streptococcus pyogenes [7]) | MIC (Streptococcus pyogenes [8]) | MIC (Moraxella catarrhalis) | MIC (Haemophilus influenzae) | MIC (Staphylococcus aureus [9]) | MIC (Streptococcus pneumoniae [10]) | MIC (Streptococcus pyogenes [11]) |
| --- | --- | --- | --- | --- | --- | --- | --- | --- | --- | --- | --- | --- | --- |
| CC[C@H]1OC(=O)[C@H](C)C(=O)[C@H](C)[C@@H](O[C@@H]2O[C@H](C)C[C@H](N(C)C)[C@H]2O)[C@](C)(OCC(O)CN2CCN(c3cccc(C(F)(F)F)c3)CC2)C[C@@H](C)NC(=O)[C@H](C)[C@@H](O)[C@]1(C)O (mixture of isomers) | 4 µg/mL | > 64 µg/mL | 4 µg/mL | 16 µg/mL | 4 µg/mL | 4 µg/mL | 16 µg/mL | 2 µg/mL | 1 µg/mL | 16 µg/mL | 4 µg/mL | 0.5 µg/mL | ≤ 0.125 µg/mL |
| CC[C@H]1OC(=O)[C@H](C)C(=O)[C@H](C)[C@@H](O[C@@H]2O[C@H](C)C[C@H](N(C)C)[C@H]2O)[C@](C)(OCC(O)CN2CCN(c3ccc(C(C)=O)cc3)CC2)C[C@@H](C)NC(=O)[C@H](C)[C@@H](O)[C@]1(C)O (mixture of isomers) | 4 µg/mL | > 64 µg/mL | 2 µg/mL | 32 µg/mL | 2 µg/mL | 8 µg/mL | 32 µg/mL | 4 µg/mL | 4 µg/mL | 16 µg/mL | 2 µg/mL | 1 µg/mL | 0.5 µg/mL |
| CCOc1ccccc1N1CCN(CC(O)CO[C@]2(C)C[C@@H](C)NC(=O)[C@H](C)[C@@H](O)[C@](C)(O)[C@@H](CC)OC(=O)[C@H](C)C(=O)[C@H](C)[C@H]2O[C@@H]2O[C@H](C)C[C@H](N(C)C)[C@H]2O)CC1 (mixture of isomers) | 2 µg/mL | > 64 µg/mL | 4 µg/mL | 16 µg/mL | 8 µg/mL | 8 µg/mL | 16 µg/mL | 4 µg/mL | 2 µg/mL | 32 µg/mL | 2 µg/mL | 0.5 µg/mL | ≤ 0.125 µg/mL |
| CC[C@H]1OC(=O)[C@H](C)C(=O)[C@H](C)[C@@H](O[C@@H]2O[C@H](C)C[C@H](N(C)C)[C@H]2O)[C@](C)(OCC(O)CNCc2cnc3ccccc3c2)C[C@@H](C)NC(=O)[C@H](C)[C@@H](O)[C@]1(C)O (mixture of isomers) | 2 µg/mL | > 64 µg/mL | 0.5 µg/mL | 8 µg/mL | 4 µg/mL | 4 µg/mL | 8 µg/mL | 8 µg/mL | 2 µg/mL | 4 µg/mL | 1 µg/mL | ≤ 0.125 µg/mL | ≤ 0.125 µg/mL |
| CC[C@H]1OC(=O)[C@H](C)C(=O)[C@H](C)[C@@H](O[C@@H]2O[C@H](C)C[C@H](N(C)C)[C@H]2O)[C@](C)(OCC(O)CNCCNc2cnc3ccccc3c2)C[C@@H](C)NC(=O)[C@H](C)[C@@H](O)[C@]1(C)O (mixture of isomers) | 1 µg/mL | > 64 µg/mL | 0.25 µg/mL | 1 µg/mL | 0.25 µg/mL | 1 µg/mL | 4 µg/mL | 0.5 µg/mL | ≤ 0.125 µg/mL | 1 µg/mL | 1 µg/mL | ≤ 0.125 µg/mL | ≤ 0.125 µg/mL |
| CC[C@H]1OC(=O)[C@H](C)[C@@H](O[C@H]2C[C@@](C)(OC)[C@@H](O)[C@H](C)O2)[C@H](C)[C@@H](O[C@@H]2O[C@H](C)C[C@H](N(C)C)[C@H]2O)[C@](C)(O)C[C@@H](C)CN(C)[C@H](C)[C@@H](O)[C@]1(C)O [AZITHROMYCIN] | > 64 µg/mL | > 64 µg/mL | > 64 µg/mL | > 64 µg/mL | 4 µg/mL (≈ 5.34 µM) | 8 µg/mL (≈ 10.7 µM) | > 64 µg/mL | 1 µg/mL (≈ 1.34 µM) | 0.25 µg/mL (≈ 0.334 µM) | 1 µg/mL (≈ 1.34 µM) | 1 µg/mL (≈ 1.34 µM) | ≤ 0.125 µg/mL | ≤ 0.125 µg/mL |
